Drawing on US6124269A, “2-Halo-6-O-substituted ketolide derivatives” (priority 1998, dated 2000), this text covers MIC for four compounds.

Values after ≈ are worked out from the molar mass of the structure shown.

Common to all, as to format: cell-based
The subject of assay [1] is Streptococcus pneumoniae ATCC 6303. Kind of assay: In vitro agar dilution MIC, organism code XX. The settings on record: unit assumed. Here is the method:
(§1) Representative compounds of the present invention were assayed in vitro for antibacterial activity as follows: Twelve petri dishes containing successive aqueous dilutions of the test compound mixed with 10 mL of sterilized Brain Heart Infusion (BHI) agar (Difco 0418-01-5) were prepared. Each plate was inoculated with 1:100 (or 1:10 for slow-growing strains, such as Micrococcus and Streptococcus) dilutions of up to 32 different microorganisms, using a Steers replicator block. The inoculated plates were incubated at 35-37° C. for 20 to 24 hours. In addition, a control plate, using BHI agar containing no test compound, was prepared and incubated at the beginning and end of each test.
(§2) An additional plate containing a compound having known susceptibility patterns for the organisms being tested and belonging to the same antibiotic class as the test compound was also prepared and incubated as a further control, as well as to provide test-to-test comparability.
(§3) After incubation, each plate was visually inspected. The minimum inhibitory concentration (MIC) was defined as the lowest concentration of drug yielding no growth, a slight haze, or sparsely isolated colonies on the inoculum spot as compared to the growth control.

For assay [2], the system named is Streptococcus pneumoniae 5649. Kind of assay: In vitro agar dilution MIC, organism code ZZA. The settings on record: unit assumed. As to the method:
as §1, §2, §3
(In general: In agar dilution, organisms are placed on agar that contains the substance at set levels.)

Assay [3] concerns Staphylococcus aureus A-5278. Kind of assay: In vitro agar dilution MIC, organism code CC. As to conditions: Table 1C, unit assumed. Here is the method: as §1, §2, §3
Assay [4] deals with Streptococcus pyogenes PIU 2548. As to the kind of experiment: In vitro agar dilution MIC, organism code NN. As to conditions: unit assumed. Here is the method: as §1, §2, §3
The subject of assay [5] is Haemophilis influenzae DILL AMP R. As to the kind of experiment: In vitro agar dilution MIC, organism code WW. As to conditions: unit assumed. Here is the method:
as §1, §2, §3

Assay [6] relates to Streptococcus pyogenes EES61. As to the kind of experiment: In vitro agar dilution MIC, organism code LL. The settings on record: unit assumed. Here is the method:
as §1, §2, §3

Assay [7] concerns Staphylococcus aureus A5177. Kind of assay: In vitro agar dilution MIC, organism code BB. As to conditions: Table 1C, in µg/mL (unit assumed). Here is the method:
as §1, §2, §3

Assay [8] deals with Streptococcus pyogenes 930. As to the kind of experiment: In vitro agar dilution MIC, organism code MM. As to conditions: unit assumed. As to the method:
as §1, §2, §3

Assay [9] relates to Streptococcus pneumoniae 5979. As to the kind of experiment: In vitro agar dilution MIC, organism code ZZ. The settings on record: unit assumed. Here is the method: as §1, §2, §3
For assay [10], the system named is Staphylococcus aureus ATCC 6538P. As to the kind of experiment: In vitro agar dilution MIC, organism code AA. The settings on record: Table 1C, unit assumed. As to the method:
as §1, §2, §3

Turning to `CC[C@H]1OC(=O)[C@H](C)C(=O)[C@H](C)[C@@H](O[C@@H]2O[C@H](C)C[C@H](N(C)C)[C@H]2O)[C@](C)(OC)C[C@@H](C)C2=NCCN3C(=O)O[C@@]1(C)[C@H]3[C@H]2C` [Standard (X is H), reference compound], the MIC in assay [1] (Table 1C) is 0.06 µg/mL (≈ 0.0941 µM); in assay [2] (Table 1C), 0.5 µg/mL (≈ 0.784 µM); in assay [3], greater than 100 µg/mL; in assay [4] (Table 1C) it was 0.39 µg/mL (≈ 0.611 µM); in assay [5] (Table 1C) it was 4 µg/mL (≈ 6.27 µM); in assay [6] (Table 1C) it was 0.02 µg/mL (≈ 0.0314 µM). Also, the MIC in assay [7] was 0.2; in assay [8] (Table 1C) it was greater than 100 µg/mL; in assay [9] (Table 1C), greater than 128 µg/mL; in assay [10], 0.2 µg/mL (≈ 0.314 µM).
Consider `CC[C@H]1OC(=O)[C@H](C)C(=O)[C@H](C)[C@@H](O[C@@H]2O[C@H](C)C[C@H](N(C)C)[C@H]2O)[C@](C)(OC/C=C/c2cnc3ccccc3c2)C[C@@H](C)C(=O)[C@H](C)[C@H]2NC(=O)O[C@@]21C` [Standard A, reference compound], for which the MIC turned out to be 0.03 µg/mL (≈ 0.0392 µM) in [1] (Table 1D); 0.25 µg/mL (≈ 0.326 µM) in assay [2] (Table 1D); 0.25 µg/mL (≈ 0.326 µM) in assay [4] (Table 1D); 2 µg/mL (≈ 2.61 µM) in [5] (Table 1D); 0.03 µg/mL (≈ 0.0392 µM) in [6] (Table 1D); 1 µg/mL (≈ 1.31 µM) in [8] (Table 1D). The compound further yielded an MIC in [9] (Table 1D) of 16 µg/mL (≈ 20.9 µM).
Take `CC[C@H]1OC(=O)[C@H](C)C(=O)[C@H](C)[C@@H](O[C@@H]2O[C@H](C)C[C@H](N(C)C)[C@H]2O)[C@](C)(OC/C=C/c2ccccc2)C[C@@H](C)C(=O)[C@H](C)[C@H]2NC(=O)O[C@@]21C` [Standard B, reference compound]: the MIC in assay [1] (Table 1D) is 0.03 µg/mL (≈ 0.042 µM); in assay [2] (Table 1D), 0.25 µg/mL (≈ 0.35 µM); in [4] (Table 1D) it was 0.25 µg/mL (≈ 0.35 µM); in [5] (Table 1D) it was 4 µg/mL (≈ 5.6 µM); in assay [6] (Table 1D), 0.03 µg/mL (≈ 0.042 µM); in assay [8] (Table 1D) it was 64 µg/mL (≈ 89.5 µM). The compound further came in with an MIC in assay [9] (Table 1D) of 128 µg/mL (≈ 179 µM).
Consider `CC[C@H]1OC(=O)[C@H](C)C(=O)[C@H](C)[C@@H](O[C@@H]2O[C@H](C)C[C@H](N(C)C)[C@H]2O)[C@](C)(OC/C=C/c2ccc3nccnc3c2)C[C@@H](C)C(=O)[C@H](C)[C@H]2NC(=O)O[C@@]21C` [Standard C, reference compound], for which the MIC is 0.015 µg/mL (≈ 0.0196 µM) in [1] (Table 1D); 0.5 µg/mL (≈ 0.652 µM) in [2] (Table 1D); 0.25 µg/mL (≈ 0.326 µM) in assay [4] (Table 1D); 2 µg/mL (≈ 2.61 µM) in assay [5] (Table 1D); 0.03 µg/mL (≈ 0.0391 µM) in [6] (Table 1D); 1 µg/mL (≈ 1.3 µM) in [8] (Table 1D). For the same compound, the MIC in assay [9] (Table 1D) is 64 µg/mL (≈ 83.4 µM).
